Several values for one entry are separate records, joined by “and”; a condition that tells them apart may be missing. Identical values can stand only once.
How the values were obtained:
hind paw of mice = experiment: Electronic Von-Frey mechanical sensitivity (withdrawal thresholds) after Paclitaxel-induced neuropathic pain; assay type: in vivo; conditions: for Withdrawal test, test 1 / Withdrawal test, test 4 / Withdrawal test, test 5 / Withdrawal test, test 6 / Withdrawal test, test 2 / Withdrawal test, test 3: per animal; for Withdrawal test, All group average: 8 mice; for Withdrawal test, Average: average per animal; for Withdrawal test, Change from b.l.: group average vs baseline; for Withdrawal test, test 6: additional test
Experimental: Mechanical sensitivity was evaluated by measuring the changes in tactile sensitivity in the hind paw of mice, using an Electronic Von-Frey apparatus (EVF). Withdrawal thresholds were measured, using the EVF apparatus, first at baseline (time=0) and then following drug, in a few periods after administration, by applying an accurate force on specific areas of the skin and measuring the needed force for the mouse to lift its paw.
Paclitaxel was utilized for the stimulation of a chemotherapy-induced neuropathic pain. Paclitaxel is anti-cancer chemotherapy drug classified as a “plant alkaloid” and an “antimicrotubule agent”.
Mice were divided into three groups of 8 mice each, as follows: • (a) Group no. 1—Morphine as positive control; • (b) Group no. […] 3—synthetic THC derivative 9-Desmethyl THC.
A portion of Paclitaxel was administered to each mouse by i.p. injection, on days 1, 3, 5 and 7 from the beginning of the experiment. At day 8, withdrawal thresholds were measured first at baseline (time=0), thereafter each mouse received a single portion of a drug substance, at 5 mg/Kg body weight concentration, by oral gavage and measurements took place.
The first checking point was 1 hour after administration of each drug. For every mouse, its threshold for the pain perception in which it removes its hind paw after the stabbing of the Von-Frey hair has been checked. Needed force (in gram force units) was measured each time and was recorded for every checking. This test was repeated 5 times for each mouse consecutively.
This procedure was repeated for all the three groups. The next checking point was 3 hours after administration, where the last withdrawal thresholds measurements were performed on the next morning, on day 9, which was 24 hours after administration.
Morphine was utilized as a positive control where group no. 1 mice received morphine (dissolved in a saline solution (0.9%) and injected subcutaneously) as an analgesic agent, prior to the mechanical sensitivity tests.
The tests described in this example are complicated and depend on numerous factors. Accordingly, results above 10.0 gram force (marked with an asterisk) were not included in the evaluation of the experimental data. In cases of exceptional results, an additional test was performed mouse (test 6) in order to assure the exceptional result.

mice = experiment: Hot plate assay, withdrawal reflex latency (WRL); assay type: in vivo; conditions: for Hot plate Time: per animal
[1] = t = 1 h after 5 mg/Kg single dose (oral gavage; morphine s.c.), * values >10.0 excluded from evaluation
[2] = t = 1 h after 5 mg/Kg, * values excluded
[3] = t = 3 h after 5 mg/Kg, * values excluded
[4] = t = 24 h after 5 mg/Kg, * values excluded

Compound: CCCCCc1cc(O)c2c(c1)OC(C)(C)[C@@H]1CCC=C[C@@H]21 [9-Desmethyl THC, 9-desmethyl-THC]
- average decrease in the withdrawal thresholds (hind paw of mice; 1 h after 5 mg/Kg, vs baseline): 10.2%
- decrease compared to baseline in the withdrawal thresholds (hind paw of mice; 3 h after 5 mg/Kg): 12.1%
- Withdrawal test, test 1 (hind paw of mice; [1]): 4.0 gram force (2×) and 7.2 gram force and 5.1 gram force and 4.3 gram force and 4.9 gram force and 7.3 gram force and 5.3 gram force
- Withdrawal test, All group average (hind paw of mice; t = 1 h after 5 mg/Kg): 5.55 gram force
- Withdrawal test, Average (hind paw of mice; t = 1 h after 5 mg/Kg): 4.82 gram force and 5.82 gram force and 5.84 gram force and 6.20 gram force and 5.12 gram force and 5.18 gram force and 5.98 gram force and 5.42 gram force
- Withdrawal test, Change from b.l. (hind paw of mice; t = 1 h after 5 mg/Kg): −10.2%
- Withdrawal test, test 4 (hind paw of mice; t = 1 h after 5 mg/Kg): 5.3 gram force (2×) and 5.7 gram force and 4.0 gram force and 4.3 gram force (2×) and 5.4 gram force and 4.5 gram force
- Withdrawal test, test 5 (hind paw of mice; t = 1 h after 5 mg/Kg): 4.3 gram force and 6.8 gram force (2×) and 4.4 gram force and 7.4 gram force and 4.6 gram force and 4.1 gram force and 5.6 gram force
- Withdrawal test, test 6 (hind paw of mice; t = 1 h after 5 mg/Kg): 6.3 gram force and 5.3 gram force
- Withdrawal test, test 2 (hind paw of mice; [2]): 6.1 gram force (2×) and 4.7 gram force and 9.8 gram force and 9.4 gram force and 6.7 gram force and 5.7 gram force and 4.0 gram force
- Withdrawal test, test 3 (hind paw of mice; [2]): 4.4 gram force and 5.1 gram force and 4.2 gram force (2×) and 6.2 gram force and 5.7 gram force and 7.0 gram force and 7.7 gram force
- Withdrawal test, All group average (hind paw of mice; t = 3 h after 5 mg/Kg): 5.43 gram force
- Withdrawal test, Average (hind paw of mice; t = 3 h after 5 mg/Kg): 5.34 gram force and 5.02 gram force and 5.00 gram force and 5.62 gram force and 5.70 gram force (2×) and 5.22 gram force and 5.86 gram force
- Withdrawal test, Change from b.l. (hind paw of mice; t = 3 h after 5 mg/Kg): −12.1%
- Withdrawal test, test 2 (hind paw of mice; t = 3 h after 5 mg/Kg): 5.1 gram force and 4.6 gram force and 4.8 gram force (2×) and 8.6 gram force (2×) and 4.7 gram force and 5.5 gram force
- Withdrawal test, test 4 (hind paw of mice; t = 3 h after 5 mg/Kg): 4.1 gram force and 5.0 gram force and 5.4 gram force (2×) and 9.5 gram force and 4.9 gram force and 6.0 gram force and 4.2 gram force
- Withdrawal test, test 5 (hind paw of mice; t = 3 h after 5 mg/Kg): 4.7 gram force (2×) and 6.3 gram force and 4.2 gram force and 4.3 gram force and 6.5 gram force and 6.8 gram force and 7.0 gram force
- Withdrawal test, test 6 (hind paw of mice; t = 3 h after 5 mg/Kg): 4.4 gram force and 4.9 gram force (2×)
- Withdrawal test, test 1 (hind paw of mice; [3]): 7.4 gram force and 5.0 gram force and 4.8 gram force and 4.3 gram force and 4.5 gram force and 4.6 gram force and 7.0 gram force and 6.8 gram force
- Withdrawal test, test 3 (hind paw of mice; [3]): 5.4 gram force and 4.2 gram force and 5.8 gram force and 5.2 gram force and 4.0 gram force (3×) and 4.6 gram force
- Withdrawal test, All group average (hind paw of mice; t = 24 h after 5 mg/Kg): 5.36 gram force
- Withdrawal test, Average (hind paw of mice; t = 24 h after 5 mg/Kg): 6.58 gram force and 4.80 gram force and 5.28 gram force and 6.12 gram force and 4.96 gram force and 4.74 gram force and 5.16 gram force and 5.26 gram force
- Withdrawal test, Change from b.l. (hind paw of mice; t = 24 h after 5 mg/Kg): −13.3%
- Withdrawal test, test 1 (hind paw of mice; t = 24 h after 5 mg/Kg): 5.4 gram force and 5.0 gram force (2×) and 4.2 gram force (3×) and 7.0 gram force and 7.1 gram force
- Withdrawal test, test 2 (hind paw of mice; t = 24 h after 5 mg/Kg): 6.9 gram force and 4.1 gram force (3×) and 4.7 gram force and 5.6 gram force and 4.4 gram force and 4.5 gram force
- Withdrawal test, test 3 (hind paw of mice; t = 24 h after 5 mg/Kg): 8.8 gram force and 4.1 gram force (2×) and 4.7 gram force and 4.2 gram force and 4.0 gram force and 5.6 gram force and 6.1 gram force
- Withdrawal test, test 4 (hind paw of mice; [4]): 4.4 gram force and 6.2 gram force and 8.1 gram force and 9.0 gram force and 5.0 gram force and 5.1 gram force and 7.6 gram force and 4.0 gram force
- Withdrawal test, test 5 (hind paw of mice; [4]): 7.4 gram force and 4.6 gram force (2×) and *10.0 gram force and 5.8 gram force and 7.3 gram force and 4.0 gram force (2×)

Compound: CN1CC[C@]23c4c5ccc(O)c4O[C@H]2[C@@H](O)C=C[C@H]3[C@H]1C5 [Morphine, reference compound]
- Withdrawal test, test 1 (hind paw of mice; [1]): 4.4 gram force (2×) and 8.5 gram force and 8.4 gram force and 5.2 gram force and 5.9 gram force and 4.7 gram force and 5.6 gram force
- Withdrawal test, All group average (hind paw of mice; t = 1 h after 5 mg/Kg): 6.21 gram force
- Withdrawal test, Average (hind paw of mice; t = 1 h after 5 mg/Kg): 5.68 gram force (2×) and 7.80 gram force and 7.17 gram force and 6.62 gram force and 6.02 gram force and 5.26 gram force and 5.45 gram force
- Withdrawal test, Change from b.l. (hind paw of mice; t = 1 h after 5 mg/Kg): +6.7%
- Withdrawal test, Change from b.l. (hind paw of mice; t = 1 h after 5 mg/Kg, listed as morphine): 6.7%
- Withdrawal test, test 4 (hind paw of mice; t = 1 h after 5 mg/Kg): 9.1 gram force and 8.3 gram force and 7.4 gram force and 6.5 gram force and 5.0 gram force and 4.2 gram force and 5.3 gram force and 4.4 gram force
- Withdrawal test, test 5 (hind paw of mice; t = 1 h after 5 mg/Kg): 4.2 gram force and 9.8 gram force and 5.7 gram force and 9.0 gram force and 4.9 gram force and 9.2 gram force and 7.5 gram force and 5.8 gram force
- Withdrawal test, test 2 (hind paw of mice; [2]): 6.5 gram force and 4.3 gram force and *10.3 gram force and 7.9 gram force and 8.3 gram force and 7.6 gram force and 4.2 gram force and 6.0 gram force
- Withdrawal test, test 3 (hind paw of mice; [2]): 4.2 gram force and 8.1 gram force and *10.5 gram force and 4.5 gram force and 4.3 gram force and 4.4 gram force and 4.9 gram force and *10.2 gram force
- Withdrawal test, All group average (hind paw of mice; t = 3 h after 5 mg/Kg): 5.79 gram force
- Withdrawal test, Average (hind paw of mice; t = 3 h after 5 mg/Kg): 6.28 gram force and 6.00 gram force and 4.68 gram force and 5.50 gram force and 5.66 gram force and 5.12 gram force and 6.34 gram force and 5.34 gram force
- Withdrawal test, Change from b.l. (hind paw of mice; t = 3 h after 5 mg/Kg): −0.5%
- Withdrawal test, Change from b.l. (hind paw of mice; t = 3 h after 5 mg/Kg, listed as morphine): −0.5%
- Withdrawal test, test 2 (hind paw of mice; t = 3 h after 5 mg/Kg): 5.5 gram force (2×) and 6.8 gram force and 4.3 gram force and 6.1 gram force and 5.9 gram force and 4.4 gram force and 5.3 gram force
- Withdrawal test, test 4 (hind paw of mice; t = 3 h after 5 mg/Kg): 5.5 gram force and 4.9 gram force and 4.6 gram force and 4.3 gram force and 7.0 gram force and 5.3 gram force and 6.4 gram force and 5.8 gram force
- Withdrawal test, test 5 (hind paw of mice; t = 3 h after 5 mg/Kg): 6.9 gram force and 8.6 gram force and 5.5 gram force and 5.6 gram force and 4.6 gram force and 5.2 gram force and 6.1 gram force and 5.7 gram force
- Withdrawal test, test 6 (hind paw of mice; t = 3 h after 5 mg/Kg): 7.0 gram force and 4.5 gram force
- Withdrawal test, test 1 (hind paw of mice; [3]): 7.2 gram force and 5.3 gram force (2×) and *11.6 gram force and 6.6 gram force and 5.6 gram force and 6.4 gram force and 5.4 gram force
- Withdrawal test, test 3 (hind paw of mice; [3]): 6.3 gram force and 4.4 gram force and 4.3 gram force (2×) and 4.9 gram force and 5.2 gram force and 8.4 gram force and 4.5 gram force
- Withdrawal test, All group average (hind paw of mice; t = 24 h after 5 mg/Kg): 5.09 gram force
- Withdrawal test, Average (hind paw of mice; t = 24 h after 5 mg/Kg): 5.23 gram force and 4.80 gram force and 5.44 gram force and 5.28 gram force and 4.32 gram force and 6.08 gram force and 4.54 gram force and 5.00 gram force
- Withdrawal test, Change from b.l. (hind paw of mice; t = 24 h after 5 mg/Kg): −12.5%
- Withdrawal test, Change from b.l. (hind paw of mice; t = 24 h after 5 mg/Kg, listed as morphine): −12.5%
- Withdrawal test, test 1 (hind paw of mice; t = 24 h after 5 mg/Kg): 5.2 gram force (2×) and 4.0 gram force (2×) and 4.3 gram force and 4.1 gram force and 6.9 gram force and 5.4 gram force
- Withdrawal test, test 2 (hind paw of mice; t = 24 h after 5 mg/Kg): 4.7 gram force (3×) and 5.2 gram force and 5.3 gram force and 5.8 gram force and 6.0 gram force and 4.0 gram force
- Withdrawal test, test 3 (hind paw of mice; t = 24 h after 5 mg/Kg): 4.5 gram force and 6.5 gram force and 4.1 gram force (2×) and 4.0 gram force and 4.8 gram force and 5.1 gram force and 4.2 gram force
- Withdrawal test, test 6 (hind paw of mice; t = 24 h after 5 mg/Kg): 6.5 gram force and 4.3 gram force
- Withdrawal test, test 4 (hind paw of mice; [4]): *12.9 gram force and 4.0 gram force and 4.1 gram force and 6.7 gram force and 4.7 gram force (2×) and 4.6 gram force and 7.4 gram force
- Withdrawal test, test 5 (hind paw of mice; [4]): 6.5 gram force and 4.3 gram force (2×) and 9.4 gram force and 4.6 gram force and 4.1 gram force and 8.0 gram force and 4.0 gram force
- Hot plate Avg. 6 mice (mice; 5 mg/kg oral, t = 0.5 h): 14.43 s
- Hot plate Time (mice; 5 mg/kg oral, t = 0.5 h, cut-off 30 s): 15.7 s and 13.1 s and 10.5 s and 23.8 s and 12.4 s and 11.1 s
- Hot plate Avg. 6 mice (mice; 5 mg/kg oral, t = 3 h): 14.05 s
- Hot plate Time (mice; 5 mg/kg oral, t = 3 h): 16.8 s and 11.4 s and 20.5 s and 12.6 s and 14.5 s and 8.5 s
- Hot plate Avg. 6 mice (mice; 5 mg/kg oral, t = 6 h): 14.25 s
- Hot plate Time (mice; 5 mg/kg oral, t = 6 h): 12.7 s and 8.0 s and 26.6 s and 19.7 s and 12.0 s and 6.5 s
- Hot plate Avg. 3 mice (mice; 5 mg/kg oral, t = 24 h): 5.8 s
- Hot plate Time (mice; 5 mg/kg oral, t = 24 h): 2.4 s and 9.0 s and 5.9 s
- average increase in WRL compared to baseline (t=0) (mice; 5 mg/kg, 0.5 h): 26.9%
- change in average WRL compared to t=0 at baseline (mice; 5 mg/kg, 3 h): +23%
- change in average WRL compared to baseline (mice; 5 mg/kg, 6 h): +25%
- average WRL less than baseline (mice; 5 mg/kg, 24 h, 3 animals): about 50%

— patent US20230331690A1, “THC DERIVATIVES, ORAL DOSAGE FORMS COMPRISING SAME, USES THEREOF FOR TREATING DISEASES AND DISORDERS AND SYNTHESIS THEREOF” (BAR-ILAN UNIVERSITY, priority 2020, published 2023)
